# The supplement of paper PMC10307832
# What was measured:
# Test in all cases: relative viability (nuclei count vs DMSO), 5 days (fraction); higher = more cells survive
# Fedratinib + Phenformin = compound: Cc1cnc(Nc2ccc(OCCN3CCCC3)cc2)nc1Nc1cccc(S(=O)(=O)NC(C)(C)C)c1 [Fedratinib] + N=C(N)NC(=N)NCCc1ccccc1 [Phenformin] (partner 250 µM)
# In short: (§1)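 Five library-drug doses in √10 steps were combined with a fixed anchor-drug dose, or a single drug was given alone, by pin tool to lung cancer cell lines in 1536-well plates the day after seeding. Nuclei were stained and counted after 5 days. Relative viability is the nuclei count in treated wells over that in vehicle wells, taken as the median of duplicate plates.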
# Fedratinib + Luminespib = compound: Cc1cnc(Nc2ccc(OCCN3CCCC3)cc2)nc1Nc1cccc(S(=O)(=O)NC(C)(C)C)c1 [Fedratinib] + CCNC(=O)c1noc(-c2cc(C(C)C)c(O)cc2O)c1-c1ccc(CN2CCOCC2)cc1 [Luminespib] (partner 0.01 µM)
# In short: as §1
# GW-2580 + Luminespib = compound: COC1=CC=C(C=C1)COC2=C(C=C(C=C2)CC3=CN=C(N=C3N)N)OC [GW-2580] + CCNC(=O)c1noc(-c2cc(C(C)C)c(O)cc2O)c1-c1ccc(CN2CCOCC2)cc1 [Luminespib] (partner 0.01 µM)
# In short: as §1
# GW-2580 + Phenformin = compound: COC1=CC=C(C=C1)COC2=C(C=C(C=C2)CC3=CN=C(N=C3N)N)OC [GW-2580] + N=C(N)NC(=N)NCCc1ccccc1 [Phenformin] (partner 250 µM)
# In short: as §1
# GW-2580 + Bortezomib = compound: COC1=CC=C(C=C1)COC2=C(C=C(C=C2)CC3=CN=C(N=C3N)N)OC [GW-2580] + CC(C)C[C@H](NC(=O)[C@H](Cc1ccccc1)NC(=O)c1cnccn1)B(O)O [Bortezomib] (partner 0.002 µM)
# In short: as §1
cell line,measurement,setting,value
UMC-11,relative viability,Fedratinib + Phenformin; first compound 0.1 µM,0.338
same,relative viability,Fedratinib + Phenformin; first compound 0.3162 µM,0.272
same,relative viability,Fedratinib + Phenformin; first compound 1 µM,0.359
same,relative viability,Fedratinib + Luminespib; first compound 0.1 µM,0.984
same,relative viability,Fedratinib + Luminespib; first compound 0.3162 µM,0.887
same,relative viability,Fedratinib + Luminespib; first compound 1 µM,0.758
same,relative viability,GW-2580 + Luminespib; first compound 0.08 µM,0.992
same,relative viability,GW-2580 + Luminespib; first compound 0.8 µM,1.1
same,relative viability,GW-2580 + Luminespib; first compound 2.53 µM,1.12
same,relative viability,GW-2580 + Luminespib; first compound 8 µM,1.16
same,relative viability,GW-2580 + Phenformin; first compound 0.08 µM,0.349
same,relative viability,GW-2580 + Phenformin; first compound 0.8 µM,0.311
same,relative viability,GW-2580 + Phenformin; first compound 2.53 µM,0.388
same,relative viability,GW-2580 + Phenformin; first compound 8 µM,0.343
same,relative viability,GW-2580 + Bortezomib; first compound 0.08 µM,0.793
same,relative viability,GW-2580 + Bortezomib; first compound 0.8 µM,0.758
same,relative viability,GW-2580 + Bortezomib; first compound 2.53 µM,0.788
same,relative viability,GW-2580 + Bortezomib; first compound 8 µM,0.603
